The target in this test is T1, LKB1 (Homo sapiens, UniProt Q15831+Q7RTN6).
T1 sequence (Q15831 1-433): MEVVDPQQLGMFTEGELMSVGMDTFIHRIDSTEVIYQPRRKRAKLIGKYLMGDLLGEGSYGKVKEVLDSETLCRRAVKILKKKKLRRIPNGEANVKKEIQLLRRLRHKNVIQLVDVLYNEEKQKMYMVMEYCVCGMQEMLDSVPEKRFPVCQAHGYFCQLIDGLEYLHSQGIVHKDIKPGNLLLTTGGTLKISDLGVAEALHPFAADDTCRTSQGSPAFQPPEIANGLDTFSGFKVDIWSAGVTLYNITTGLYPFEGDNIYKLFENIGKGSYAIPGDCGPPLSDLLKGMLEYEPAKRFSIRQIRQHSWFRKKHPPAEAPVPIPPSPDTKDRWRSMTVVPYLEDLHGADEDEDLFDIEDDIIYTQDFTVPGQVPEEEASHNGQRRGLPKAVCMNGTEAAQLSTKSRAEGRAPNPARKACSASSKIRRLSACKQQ
T1 sequence (Q7RTN6 1-431): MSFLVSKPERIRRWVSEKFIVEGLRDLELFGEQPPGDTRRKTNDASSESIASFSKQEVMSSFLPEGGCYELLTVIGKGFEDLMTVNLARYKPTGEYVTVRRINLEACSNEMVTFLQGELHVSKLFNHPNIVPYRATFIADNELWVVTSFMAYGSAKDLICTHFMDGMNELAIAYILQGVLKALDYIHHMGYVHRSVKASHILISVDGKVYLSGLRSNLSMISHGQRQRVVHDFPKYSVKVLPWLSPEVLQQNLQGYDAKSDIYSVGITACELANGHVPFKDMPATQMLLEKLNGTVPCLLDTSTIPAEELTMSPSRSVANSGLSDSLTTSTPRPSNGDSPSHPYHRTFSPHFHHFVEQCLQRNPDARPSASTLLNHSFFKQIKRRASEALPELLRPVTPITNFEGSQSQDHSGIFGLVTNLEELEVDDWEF
T1 sequence (Q9Y376 1-341 partner): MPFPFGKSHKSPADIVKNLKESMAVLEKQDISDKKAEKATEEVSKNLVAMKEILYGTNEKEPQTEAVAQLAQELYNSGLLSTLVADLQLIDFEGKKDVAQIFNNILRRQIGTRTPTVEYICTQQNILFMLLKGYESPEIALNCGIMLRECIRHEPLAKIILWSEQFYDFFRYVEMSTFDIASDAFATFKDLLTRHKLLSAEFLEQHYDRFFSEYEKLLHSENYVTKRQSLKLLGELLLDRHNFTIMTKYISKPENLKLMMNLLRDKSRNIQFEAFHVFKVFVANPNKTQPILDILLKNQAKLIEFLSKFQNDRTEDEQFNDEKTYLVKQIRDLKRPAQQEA
The test can be described thus: in vitro LKB1 functional activity. Format: biochemical. As to conditions: APA analogs.

Take `Cc1ccc(-c2cnc(N)c(C(=O)Nc3ccc(C(N)=O)cc3)n2)cc1` [SU20668-0280, 3-amino-N-(4-carbamoylphenyl)-6-p-tolylpyrazine-2-carboxamide]: the “LKB1 % Act. Increase” value is listed as “D (D=<1000%)”.
The result for `Cc1ccc(-c2cnc(N)c(C(=O)Nc3ccc(NS(C)(=O)=O)cc3)n2)cc1` [SU20668-0281] reads “D (D=<1000%)”; that for `CNS(=O)(=O)c1ccc(NC(=O)c2nc(-c3ccc(C)cc3)cnc2N)cc1` [SU20668-0286, 3-amino-N-(4-(N-methylsulfamoyl)phenyl)-6-p-tolylpyrazine-2-carboxamide], “C (C=199-1000%)”.
For `Cc1ccc(-c2cnc(N)c(C(=O)Nc3ccc4c(c3)CNS4(=O)=O)n2)cc1` [SU20668-0288], the “LKB1 % Act. Increase” value is recorded as “D (D=<1000%)”.
Take `Cc1ccc(-c2cnc(N)c(C(=O)Nc3ccc(S(=O)(=O)C(F)(F)F)cc3)n2)cc1` [SU20668-0292, 3-amino-6-p-tolyl-N-(4-(trifluoromethylsulfonyl)phenyl)pyrazine-2-carboxamide]: the “LKB1 % Act. Increase” value is “D (D=<1000%)”.
The entry for `Cc1ccc(-c2cnc(N)c(C(=O)Nc3ccc(S(C)(=O)=O)cc3)n2)cc1` [SU20668-0293, 3-amino-N-(4-(methylsulfonyl)phenyl)-6-p-tolylpyrazine-2-carboxamide] is “C (C=199-1000%)”; for `Cc1ccc(-c2cnc(N)c(C(=O)Nc3ccc(C(=O)O)c(F)c3)n2)cc1` [SU20668-0299, 4-(3-amino-6-p-tolylpyrazine-2-carboxamido)-2-fluorobenzoic acid] it is “D (D=<1000%)”; for `Cc1ccc(-c2cnc(N)c(C(=O)Nc3ccc(C(=O)O)nc3)n2)cc1` [SU20668-0300, 5-(3-amino-6-p-tolylpyrazine-2-carboxamido)picolinic acid] it is “D (D=<1000%)”.
Take `Cc1ccc(-c2cnc(N)c(C(=O)Nc3cnc(S(C)(=O)=O)nc3)n2)cc1` [SU20668-0303, 3-amino-N-(2-(methylsulfonyl)pyrimidin-5-yl)-6-p-tolylpyrazine-2-carboxamide]: the “LKB1 % Act. Increase” value is reported as “D (D=<1000%)”.
On to `Cc1ccc(-c2cnc(N)c(C(=O)Nc3ccc(S(N)(=O)=O)nc3)n2)cc1` [SU20668-0304, 3-amino-N-(6-sulfamoylpyridin-3-yl)-6-p-tolylpyrazine-2-carboxamide], for which the “LKB1 % Act. Increase” value was “D (D=<1000%)”.
The result for `COC(=O)c1ccc(NC(=O)c2nc(-c3ccc(C)cc3)cnc2N)cc1F` [SU20668-0307, methyl 4-(3-amino-6-p-tolylpyrazine-2-carboxamido)-2-fluorobenzoate] reads “D (D=<1000%)”; that for `Cc1ccc(-c2cnc(N)c(C(=O)Nc3ccc(C(=O)OC(C)(C)C)c(F)c3)n2)cc1` [SU20668-0308, tert-butyl 4-(3-amino-6-p-tolylpyrazine-2-carboxamido)-2-fluorobenzoate], “C (C=199-1000%)”; that for `CS(=O)(=O)c1ccc(-c2cnc(N)c(C(=O)Nc3ccc(S(N)(=O)=O)cc3)n2)cc1` [SU20668-0309, 3-amino-6-(4-(methylsulfonyl)phenyl)-N-(4-sulfamoylphenyl)pyrazine-2-carboxamide], “C (C=199-1000%)”.
The entry for `Cc1ccc(-c2cnc(N)c(C(=O)Nc3ccc(S(=O)(=O)CC(=O)O)cc3)n2)cc1` [SU20668-0310, 2-(4-(3-amino-6-p-tolylpyrazine-2-carboxamido)phenylsulfonyl)acetic acid] is “D (D=<1000%)”.
Take `CCOC(=O)CS(=O)(=O)c1ccc(NC(=O)c2nc(-c3ccc(C)cc3)cnc2N)cc1` [SU20668-0311, ethyl 2-(4-(3-amino-6-p-tolylpyrazine-2-carboxamido)phenylsulfonyl)acetate]: the “LKB1 % Act. Increase” value is “C (C=199-1000%)”.
On to `Cc1ccc(-c2cnc(N)c(C(=O)Nc3ccc([S@SP3](=O)(=O)CP(=O)(O)O)cc3)n2)cc1` [SU20668-0312, (((4-(3-amino-6-(p-tolyl)pyrazine-2-carboxamido)phenyl)sulfonyl)methyl)phosphonic acid], for which the “LKB1 % Act. Increase” value is “C (C=199-1000%)”.
Regarding `CS(=O)(=O)c1ccc(NC(=O)c2nc(-c3ccc(S(C)(=O)=O)cc3)cnc2N)cc1` [SU20668-0317, methyl 3-amino-N,6-bis(4-(methylsulfonyl)phenyl)pyrazine-2-carboxamide], the “LKB1 % Act. Increase” value is recorded as “C (C=199-1000%)”.
The entry for `CCC(=O)NS(=O)(=O)c1ccc(NC(=O)c2nc(-c3ccc(C)cc3)cnc2N)cc1` [SU20668-0325, 3-amino-N-(4-(N-propionylsulfamoyl)phenyl)-6-p-tolylpyrazine-2-carboxamide] is “C (C=199-1000%)”; for `Cc1ccc(-c2cnc(N)c(C(=O)Nc3ccc(S(=O)(=O)NC(=O)C(C)C)cc3)n2)cc1` [SU20668-0327, 3-amino-N-(4-(N-isobutyrylsulfamoyl)phenyl)-6-p-tolylpyrazine-2-carboxamide] it is “D (D=<1000%)”.
`Cc1ccc(-c2cnc(N)c(C(=O)Nc3ccc(S(=O)(=O)NC(=O)CCc4ccccc4)cc3)n2)cc1` [SU20668-0328, 3-amino-N-(4-(N-(3-phenylpropanoyl)sulfamoyl)phenyl)-6-p-tolylpyrazine-2-carboxamide]: the “LKB1 % Act. Increase” value is listed as “D (D=<1000%)”.
Take `Cc1ccc(-c2cnc(N)c(C(=O)Nc3ccc(CC(=O)O)cc3)n2)cc1` [SU20668-0330, 2-(4-(3-amino-6-p-tolylpyrazine-2-carboxamido)phenyl)acetic acid]: the “LKB1 % Act. Increase” value is on record as “C (C=199-1000%)”.
The entry for `Cc1ccc(-c2cnc(N)c(C(=O)Nc3ccc(CS(N)(=O)=O)cc3)n2)cc1` [SU20668-0331, 3-amino-N-(4-(sulfamoylmethyl)phenyl)-6-p-tolylpyrazine-2-carboxamide] is “C (C=199-1000%)”; for `CCOP(=O)(O)CS(=O)(=O)c1ccc(NC(=O)c2nc(-c3ccc(C)cc3)cnc2N)cc1` [SU20668-0338, ethyl hydrogen (((4-(3-amino-6-(p-tolyl)pyrazine-2-carboxamido)phenyl)sulfonyl)methyl)phosphonate] it is “D (D=<1000%)”; for `CC(=O)NS(=O)(=O)c1ccc(NC(=O)c2nc(-c3ccc(CN(C)C)cc3)cnc2N)cc1` [SU20668-0339, N-(4-(N-acetylsulfamoyl)phenyl)-3-amino-6-(4-((dimethylamino)methyl)phenyl)pyrazine-2-carboxamide] it is “C (C=199-1000%)”.
As for `CC(=O)NS(=O)(=O)c1ccc(NC(=O)c2nc(-c3ccc(C4CCCN4)cc3)cnc2N)cc1` (stereo not shown) [SU20668-0340, N-(4-(N-acetylsulfamoyl)phenyl)-3-amino-6-(4-(pyrrolidin-2-yl)phenyl)pyrazine-2-carboxamide], the “LKB1 % Act. Increase” value is recorded as “D (D=<1000%)”.
Regarding `CC(=O)NS(=O)(=O)c1ccc(NC(=O)c2nc(-c3cccc(C(N)=O)c3)cnc2N)cc1` [SU20668-0341, N-(4-(N-acetylsulfamoyl)phenyl)-3-amino-6-(3-carbamoylphenyl)pyrazine-2-carboxamide], the “LKB1 % Act. Increase” value was “D (D=<1000%)”.
Take `CC(=O)NS(=O)(=O)c1ccc(NC(=O)c2nc(-c3ccc(C(N)=O)cc3)cnc2N)cc1` [SU20668-0342, N-(4-(N-acetylsulfamoyl)phenyl)-3-amino-6-(4-carbamoylphenyl)pyrazine-2-carboxamide]: the “LKB1 % Act. Increase” value is given as “D (D=<1000%)”.
The entry for `CC(=O)NS(=O)(=O)c1ccc(NC(=O)c2nc(-c3ccc4cn[nH]c4c3)cnc2N)cc1` [SU20668-0343, N-(4-(N-acetylsulfamoyl)phenyl)-3-amino-6-(1H-indazol-6-yl)pyrazine-2-carboxamide] is “C (C=199-1000%)”; for `CC(=O)NS(=O)(=O)c1ccc(NC(=O)c2nc(-c3ccc(N)cc3)cnc2N)cc1` [SU20668-0344, N-(4-(N-acetylsulfamoyl)phenyl)-3-amino-6-(4-aminophenyl)pyrazine-2-carboxamide] it is “C (C=199-1000%)”.
Take `CC(=O)NS(=O)(=O)c1ccc(NC(=O)c2nc(-c3ccc4cc[nH]c4c3)cnc2N)cc1` [SU20668-0345, N-(4-(N-acetylsulfamoyl)phenyl)-3-amino-6-(1H-indol-6-yl)pyrazine-2-carboxamide]: the “LKB1 % Act. Increase” value is given as “C (C=199-1000%)”.
The entry for `CC(=O)Nc1ccc(-c2cnc(N)c(C(=O)Nc3ccc(S(=O)(=O)NC(C)=O)cc3)n2)cc1` [SU20668-0346, 6-(4-acetamidophenyl)-N-(4-(N-acetylsulfamoyl)phenyl)-3-aminopyrazine-2-carboxamide] is “C (C=199-1000%)”.

Source of the values: US12195490B2, “STRAD-binding agents and uses thereof” (The Regents of the University of California, priority 2020, dated 2025).
